The values that follow come from ChEMBL document CHEMBL3593193, “Discovery of 3,6-dihydroimidazo[4,5-d]pyrrolo[2,3-b]pyridin-2(1H)-one derivatives as novel JAK inhibitors” (Bioorg Med Chem, 2015).

Data set [1] concerns the target T1, Tyrosine-protein kinase JAK3 (Homo sapiens, UniProt P52333).
T1 sequence (P52333 whole entry): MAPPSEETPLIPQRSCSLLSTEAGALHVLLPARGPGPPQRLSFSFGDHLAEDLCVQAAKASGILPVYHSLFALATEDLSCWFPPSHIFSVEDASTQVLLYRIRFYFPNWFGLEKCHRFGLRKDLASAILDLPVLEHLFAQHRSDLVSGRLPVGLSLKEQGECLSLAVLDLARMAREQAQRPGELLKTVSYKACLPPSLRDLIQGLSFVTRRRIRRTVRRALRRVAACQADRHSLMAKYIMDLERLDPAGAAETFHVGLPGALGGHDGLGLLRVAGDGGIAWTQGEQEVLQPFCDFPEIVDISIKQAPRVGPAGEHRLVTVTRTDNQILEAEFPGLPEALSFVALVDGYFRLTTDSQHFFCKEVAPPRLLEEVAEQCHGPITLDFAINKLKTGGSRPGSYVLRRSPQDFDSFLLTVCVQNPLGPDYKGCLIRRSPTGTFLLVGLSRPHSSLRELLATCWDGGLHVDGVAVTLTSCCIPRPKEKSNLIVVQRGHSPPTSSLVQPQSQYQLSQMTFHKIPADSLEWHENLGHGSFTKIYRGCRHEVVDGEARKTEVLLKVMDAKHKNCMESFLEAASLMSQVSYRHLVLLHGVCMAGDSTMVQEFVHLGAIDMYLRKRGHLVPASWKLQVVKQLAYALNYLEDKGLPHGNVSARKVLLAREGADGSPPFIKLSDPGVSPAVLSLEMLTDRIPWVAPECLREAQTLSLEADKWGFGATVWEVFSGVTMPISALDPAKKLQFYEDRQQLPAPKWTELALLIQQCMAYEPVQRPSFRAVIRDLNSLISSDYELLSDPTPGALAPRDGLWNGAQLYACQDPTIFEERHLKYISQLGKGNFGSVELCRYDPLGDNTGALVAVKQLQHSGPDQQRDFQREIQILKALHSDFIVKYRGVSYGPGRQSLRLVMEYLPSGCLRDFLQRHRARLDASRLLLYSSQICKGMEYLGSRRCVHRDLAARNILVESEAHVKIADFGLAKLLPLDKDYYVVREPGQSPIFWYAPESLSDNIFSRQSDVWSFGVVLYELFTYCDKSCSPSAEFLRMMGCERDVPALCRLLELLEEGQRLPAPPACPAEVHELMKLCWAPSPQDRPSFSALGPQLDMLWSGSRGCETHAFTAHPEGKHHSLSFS
Description: Inhibition of human JAK3 kinase domain using biotin-Lyn-substrate-2 as substrate and ATP incubated for 1 hr by ELISA method

Data set [2] concerns the target Tyrosine-protein kinase JAK2 (Homo sapiens, UniProt O60674).
Description: Inhibition of human JAK2 kinase domain using biotin-Lyn-substrate-2 as substrate and ATP incubated for 1 hr by ELISA method
Data set [3] has as its target Tyrosine-protein kinase JAK1 (Homo sapiens, UniProt P23458).
Description: Inhibition of human JAK1 kinase domain using biotin-Lyn-substrate-2 as substrate and ATP incubated for 1 hr by ELISA method
Data set [4] in a line: cells. Conditions: Rattus norvegicus, Lewis, T-cell, 72 h.
Description: Inhibition of JAK1/JAK3 in Lewis rat splenocytes assessed as reduction in IL2-induced T cell proliferation incubated for 3 days by alamar blue assay
The target of data set [5] is T2, CYP3A4 (Homo sapiens, UniProt P08684). Put plainly: Time dependent inhibition of CYP3A4 in human liver microsomes assessed as remaining enzyme activity by measuring midazolam to 1'-hydroxymidazolam conversion at 5 uM pre-incubated for 30 mins before midazolam addition by LC-MS/MS method. The data set is classed as ADME. Conditions: probe midazolam (conversion to 1'-hydroxymidazolam), read-out: Activity. On the technique in general: Liver microsomes are vesicles of endoplasmic reticulum, rich in cytochrome P450 enzymes.
T2 sequence (P08684 whole entry): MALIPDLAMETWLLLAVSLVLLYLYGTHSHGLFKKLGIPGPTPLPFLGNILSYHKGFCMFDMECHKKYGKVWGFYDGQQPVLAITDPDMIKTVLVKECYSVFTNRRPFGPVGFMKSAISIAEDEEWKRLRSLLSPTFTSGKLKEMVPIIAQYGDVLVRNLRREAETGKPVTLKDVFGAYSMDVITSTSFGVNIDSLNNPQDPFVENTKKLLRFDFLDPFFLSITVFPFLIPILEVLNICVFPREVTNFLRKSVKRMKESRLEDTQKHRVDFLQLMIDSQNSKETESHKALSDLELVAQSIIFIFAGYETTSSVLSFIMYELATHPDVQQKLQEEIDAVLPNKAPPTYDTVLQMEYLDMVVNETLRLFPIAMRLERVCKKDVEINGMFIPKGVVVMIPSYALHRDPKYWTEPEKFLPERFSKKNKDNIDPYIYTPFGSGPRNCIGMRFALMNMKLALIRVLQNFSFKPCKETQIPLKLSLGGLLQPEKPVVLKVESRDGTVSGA

In data set [6] the target is T2, CYP3A4. Put plainly: Reversible inhibition of CYP3A4 in human liver microsomes assessed as remaining enzyme activity by measuring midazolam to 1'-hydroxymidazolam conversion at 5 uM pre-incubated for 30 mins before midazolam addition by LC-MS/MS method. It is filed as ADME. Conditions: probe midazolam (conversion to 1'-hydroxymidazolam), read-out: Activity.
Data set [7] is described as follows: in vitro. Conditions: Sprague-Dawley, rat, liver microsomes.
In data set [8] the test system is Liver microsome. Conditions: rat, microsomes, 0.5 h, 2 µM.

Chain of Tyrosine-protein kinase JAK2 (O60674 whole entry): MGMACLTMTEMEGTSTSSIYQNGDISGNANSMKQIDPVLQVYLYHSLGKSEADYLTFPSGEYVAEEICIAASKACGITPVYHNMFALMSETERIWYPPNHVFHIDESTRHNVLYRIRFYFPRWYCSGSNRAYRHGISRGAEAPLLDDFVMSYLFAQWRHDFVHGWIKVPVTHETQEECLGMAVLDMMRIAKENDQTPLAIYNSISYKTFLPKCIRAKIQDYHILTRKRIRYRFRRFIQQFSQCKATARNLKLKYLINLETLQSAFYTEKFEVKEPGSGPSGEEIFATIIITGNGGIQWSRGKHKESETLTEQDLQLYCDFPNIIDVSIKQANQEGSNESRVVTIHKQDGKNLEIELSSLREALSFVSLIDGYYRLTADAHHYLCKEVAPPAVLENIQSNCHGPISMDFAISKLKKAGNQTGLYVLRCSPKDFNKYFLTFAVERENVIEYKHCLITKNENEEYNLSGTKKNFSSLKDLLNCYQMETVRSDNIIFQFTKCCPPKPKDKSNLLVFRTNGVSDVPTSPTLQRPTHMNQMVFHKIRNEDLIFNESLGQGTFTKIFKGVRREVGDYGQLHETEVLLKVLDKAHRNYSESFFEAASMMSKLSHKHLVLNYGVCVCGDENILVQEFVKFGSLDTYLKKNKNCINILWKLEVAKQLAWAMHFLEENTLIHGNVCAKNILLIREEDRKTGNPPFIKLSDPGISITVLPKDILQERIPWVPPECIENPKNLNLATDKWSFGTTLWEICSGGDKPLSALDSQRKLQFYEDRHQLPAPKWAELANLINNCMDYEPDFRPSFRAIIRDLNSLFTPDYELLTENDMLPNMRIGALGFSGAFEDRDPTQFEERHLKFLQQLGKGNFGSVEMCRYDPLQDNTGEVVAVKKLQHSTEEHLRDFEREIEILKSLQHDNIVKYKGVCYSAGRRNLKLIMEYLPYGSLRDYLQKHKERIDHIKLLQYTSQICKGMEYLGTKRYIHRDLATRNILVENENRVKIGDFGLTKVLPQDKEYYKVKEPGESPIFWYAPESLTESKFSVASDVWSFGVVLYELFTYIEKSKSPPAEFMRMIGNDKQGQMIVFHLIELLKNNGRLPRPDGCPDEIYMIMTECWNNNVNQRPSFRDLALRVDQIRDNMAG
Chain of Tyrosine-protein kinase JAK1 (P23458 whole entry): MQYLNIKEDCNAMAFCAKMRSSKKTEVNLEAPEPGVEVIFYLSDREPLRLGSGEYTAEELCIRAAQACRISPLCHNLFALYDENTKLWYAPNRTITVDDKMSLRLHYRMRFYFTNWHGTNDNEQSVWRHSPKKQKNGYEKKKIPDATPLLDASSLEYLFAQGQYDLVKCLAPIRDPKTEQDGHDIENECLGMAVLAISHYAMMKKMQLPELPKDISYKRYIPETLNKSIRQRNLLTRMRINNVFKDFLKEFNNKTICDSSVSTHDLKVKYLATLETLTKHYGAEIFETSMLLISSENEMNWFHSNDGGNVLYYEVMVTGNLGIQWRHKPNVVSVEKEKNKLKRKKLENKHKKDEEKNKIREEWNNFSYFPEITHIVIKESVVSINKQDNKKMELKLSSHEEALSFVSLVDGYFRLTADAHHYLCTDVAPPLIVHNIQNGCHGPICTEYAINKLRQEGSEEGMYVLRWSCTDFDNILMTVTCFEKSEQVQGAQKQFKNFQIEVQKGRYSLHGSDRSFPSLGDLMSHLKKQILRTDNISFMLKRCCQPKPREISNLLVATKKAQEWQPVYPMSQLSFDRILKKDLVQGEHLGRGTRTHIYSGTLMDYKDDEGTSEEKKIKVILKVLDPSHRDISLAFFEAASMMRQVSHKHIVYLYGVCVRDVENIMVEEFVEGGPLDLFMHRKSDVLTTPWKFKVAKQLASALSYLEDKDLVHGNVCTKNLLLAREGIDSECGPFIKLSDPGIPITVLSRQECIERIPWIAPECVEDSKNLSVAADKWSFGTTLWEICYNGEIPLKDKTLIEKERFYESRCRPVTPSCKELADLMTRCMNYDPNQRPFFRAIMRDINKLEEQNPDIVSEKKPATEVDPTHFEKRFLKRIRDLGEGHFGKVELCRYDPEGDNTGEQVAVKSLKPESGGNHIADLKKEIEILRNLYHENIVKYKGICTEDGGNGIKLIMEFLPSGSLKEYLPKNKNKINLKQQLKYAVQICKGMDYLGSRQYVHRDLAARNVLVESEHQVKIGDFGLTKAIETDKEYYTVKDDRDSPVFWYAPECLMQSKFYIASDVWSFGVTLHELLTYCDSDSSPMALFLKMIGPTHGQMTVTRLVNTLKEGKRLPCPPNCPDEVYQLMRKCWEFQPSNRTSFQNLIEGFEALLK

Turning to `CC1CCCC(n2c(=O)[nH]c3cnc4[nH]ccc4c32)C1` (centres undefined), the IC50 (usually the point on the concentration scale where inhibition reaches its midpoint) in data set [1] was found to be 21 nM; in data set [2] it was 23 nM; in data set [3], 430 nM; in data set [4], 1000 nM.
On to `C[C@@H]1CCCC[C@@H]1n1c(=O)[nH]c2cnc3[nH]ccc3c21`, for which the activity at 30 min, 5 µM in data set [5] came to 49%; in data set [6] it was 95%. In addition, the IC50 in data set [2] turned out to be 4.4 nM; in data set [3] it was 14 nM; in data set [4] it was 32 nM. Further, the CLint scaled – broadly, a measure of how fast metabolising enzymes remove a compound, apart from limits set by blood flow – at 0.5 h, 2 µM in data set [7] turned out to be 300 mL/min/kg.
For `C[C@H]1CCCC[C@H]1n1c(=O)[nH]c2cnc3[nH]ccc3c21`, the IC50 stood at 27 nM in data set [1], 17 nM in data set [2], 28 nM in data set [3] and 110 nM in data set [4].
Regarding `O=c1[nH]c2cnc3[nH]ccc3c2n1C1CCNCC1`, the half-maximal inhibitory concentration (IC50) in data set [1] worked out at 1200 nM; in data set [2], 1300 nM; in data set [4] it was 2800 nM.
Consider `C[C@@H]1CCN(C(=O)CC#N)C[C@@H]1n1c(=O)n(C)c2cnc3[nH]ccc3c21` (racemic), for which the IC50 was 5 nM in data set [1], 7.3 nM in data set [2], 29 nM in data set [3] and 158 nM in data set [4].
The like results for `N#CCC(=O)N1CCC[C@@H](n2c(=O)[nH]c3cnc4[nH]ccc4c32)C1` were, in that order, 28 nM, 17 nM, 20 nM and 310 nM.
The matching figures for `CC1CCC(n2c(=O)[nH]c3cnc4[nH]ccc4c32)CC1` (centres undefined): 42 nM, 23 nM, 24 nM and 120 nM.
Consider `O=c1[nH]c2cnc3[nH]ccc3c2n1C1CCCC1`, for which the concentration for half-maximal inhibition (IC50) in data set [1] stood at 180 nM; in data set [2] it was 97 nM; in data set [3], 110 nM.
`CS(=O)(=O)N1CCC[C@H](n2c(=O)[nH]c3cnc4[nH]ccc4c32)C1`: the values for the IC50 in data set [1] and in data set [2] were 460 nM and 850 nM, respectively.
In the case of `O=c1[nH]c2cnc3[nH]ccc3c2n1C1CCCCCC1`, the IC50 stood at 22 nM in data set [1], 23 nM in data set [2], 30 nM in data set [3] and 74 nM in data set [4]. Also, in data set [7], the CLint scaled at 0.5 h, 2 µM worked out at 272 mL/min/kg.
As to `O=c1[nH]c2cnc3[nH]ccc3c2n1CC1CCCCC1`, the IC50 stood at 60 nM in data set [1], 88 nM in data set [2], 1000 nM in data set [3] and 860 nM in data set [4]. In data set [7], the intrinsic metabolic clearance (CLint scaled) at 0.5 h, 2 µM was 802 mL/min/kg.
In the case of `CN(c1ccnc2[nH]ccc12)C1CCCCC1`, the IC50 was found to be 1100 nM in data set [1], 1800 nM in data set [2] and 2900 nM in data set [3].
For the compound `C[C@@H]1CCN(C(=O)CC#N)C[C@@H]1n1c(=O)[nH]c2cnc3[nH]ccc3c21` (racemic), the activity at 30 min, 5 µM in data set [5] amounted to 86%. In addition, the IC50 in data set [1] came to 1.1 nM; in data set [2] it was 2.6 nM; in data set [3] it was 1.5 nM; in data set [4], 36 nM. The CLH entry in data set [8] is reported as “Stable”.
Take `CS(=O)(=O)N1CCC(n2c(=O)[nH]c3cnc4[nH]ccc4c32)CC1`: the figures for the IC50 in data set [1], in data set [2] and in data set [3] were 710 nM, 140 nM and 140 nM, respectively.
As for `CC[C@@H]1CCCC[C@@H]1n1c(=O)[nH]c2cnc3[nH]ccc3c21`, the half-maximal inhibitory concentration (IC50) in data set [1] was determined as 3 nM; in data set [2], 3.6 nM; in data set [3] it was 18 nM; in data set [4], 36 nM. For the same compound, the CLint scaled at 0.5 h, 2 µM in data set [7] was > 1000 mL/min/kg.
The matching figures for `O=c1[nH]c2cnc3[nH]ccc3c2n1C1CCCCC1`: 54 nM, 43 nM, 79 nM, 160 nM and 153 mL/min/kg.
In the case of `CS(=O)(=O)N1CCC[C@@H](n2c(=O)[nH]c3cnc4[nH]ccc4c32)C1`, the IC50 in data set [1] was 63 nM; in data set [2], 82 nM; in data set [3], 230 nM; in data set [4], 1700 nM.
Turning to `O=c1[nH]c2cnc3[nH]ccc3c2n1C1CCOCC1`, the activity at 30 min, 5 µM in data set [5] was 90%. Also, the IC50 is 270 nM in data set [1], 520 nM in data set [3] and 1400 nM in data set [4]. Besides, the CLH entry in data set [8] is “Stable”.
In the case of `CC1(C)CCCCC1n1c(=O)[nH]c2cnc3[nH]ccc3c21` (centres undefined), the IC50 is 69 nM in data set [1], 85 nM in data set [2], 90 nM in data set [3] and 110 nM in data set [4].
